Experimental findings from ChEMBL document CHEMBL5523675, “Novel mitochondrial and DNA damaging fluorescent Calix[4]arenes bearing isatin groups as aromatase inhibitors: Design, synthesis and anticancer activity” (Bioorg Med Chem, 2024) are described below.

A short description of series [1]: Antiproliferative activity against human PNT1A cells assessed as inhibition of cell growth measured after 48 hrs by Alamar blue dye based assay. Type of series: toxicity. On the technique in general: The colour change of resazurin is a common sign of viable cells or microbes.
The test system of series [2] is MDA-MB-231. Kind of series: Antiproliferative activity against human MDA-MB-231 cells assessed as inhibition of cell growth measured after 48 hrs by Alamar blue dye based assay. To be noted: MDA-MB-231, 48 h. Type of series: functional.
In series [3] the test system is MCF7. Description: Antiproliferative activity against human MCF7 cells assessed as inhibition of cell growth measured after 48 hrs by Alamar blue dye based assay. Conditions: MCF7, 48 h. Type of series: functional.
For series [4], the system named is PNT1A. Kind of series: Induction of apoptosis in human PNT1A cells assessed as necrosis incubated for 48 hrs by annexin V and 7-AAD staining based flow cytometry analysis (reference value: 0.22%). Type of series: functional. Background: Flow cytometry measures light scatter and fluorescence of single cells or particles in a stream.
The test system of series [5] is MDA-MB-231. Description: Induction of apoptosis in human MDA-MB-231 cells assessed as early apoptotic cells incubated for 48 hrs by annexin V and 7-AAD staining based flow cytometry analysis (reference value: 0.18%). Type of series: functional.
For another series, the target named is T1, Aromatase (Homo sapiens, UniProt P11511).
T1 sequence (P11511 whole entry): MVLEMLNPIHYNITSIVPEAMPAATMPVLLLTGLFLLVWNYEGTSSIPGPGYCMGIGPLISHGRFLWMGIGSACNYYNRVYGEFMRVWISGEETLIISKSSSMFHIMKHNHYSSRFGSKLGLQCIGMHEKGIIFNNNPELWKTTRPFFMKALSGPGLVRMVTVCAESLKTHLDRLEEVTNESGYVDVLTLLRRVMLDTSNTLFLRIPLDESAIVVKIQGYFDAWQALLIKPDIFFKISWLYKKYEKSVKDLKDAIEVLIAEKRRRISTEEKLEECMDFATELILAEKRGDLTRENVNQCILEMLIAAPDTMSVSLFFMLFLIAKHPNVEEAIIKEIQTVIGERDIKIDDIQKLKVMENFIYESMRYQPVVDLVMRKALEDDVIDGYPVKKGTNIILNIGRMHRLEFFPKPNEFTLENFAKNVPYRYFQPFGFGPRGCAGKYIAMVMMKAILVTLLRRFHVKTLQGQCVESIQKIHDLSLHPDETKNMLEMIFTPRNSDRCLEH
Description: Inhibition of human Aromatase by fluorimetric assay.

Series [6] is described as follows: Genotoxicity in human MDA-MB-231 cells assessed as appearance of damaged DNA structures measured after 48 hrs by ethidium bromide staining based fluorescent microscopic analysis. Type of series: toxicity, cell-based. Conditions: mda-mb-231, 48 h.
Series [7] is described as follows: Genotoxicity in human MDA-MB-231 cells assessed as abnormal tail nuclei measured after 48 hrs by ethidium bromide staining based fluorescent microscopic analysis. Type of series: toxicity, cell-based. Conditions: mda-mb-231, 48 h.
Series [8] in a line: Genotoxicity in human MCF7 cells assessed as abnormal tail nuclei measured after 48 hrs by ethidium bromide staining based fluorescent microscopic analysis. To be noted: mcf7, 48 h. Type of series: toxicity, cell-based.
Series [9] is described as follows: Genotoxicity in human MCF7 cells assessed as appearance of damaged DNA structures measured after 48 hrs by ethidium bromide staining based fluorescent microscopic analysis. Type of series: toxicity, cell-based. To be noted: mcf7, 48 h.
The test system of series [10] is MDA-MB-231. Description: Induction of apoptosis in human MDA-MB-231 cells assessed as live cells incubated for 48 hrs by annexin V and 7-AAD staining based flow cytometry analysis (reference value: 99.61%). Type of series: functional.
The subject of series [11] is MDA-MB-231. Kind of series: Induction of apoptosis in human MDA-MB-231 cells assessed as late apoptotic cells incubated for 48 hrs by annexin V and 7-AAD staining based flow cytometry analysis (reference value: 0.12%). Type of series: functional.
The subject of series [12] is MCF7. Kind of series: Induction of apoptosis in human MCF7 cells assessed as early apoptotic cells incubated for 48 hrs by annexin V and 7-AAD staining based flow cytometry analysis (reference value: 0.14%). Type of series: functional.
For series [13], the system named is MCF7. Description: Induction of apoptosis in human MCF7 cells assessed as live cells incubated for 48 hrs by annexin V and 7-AAD staining based flow cytometry analysis (reference value: 99.14%). Type of series: functional.
Series [14] concerns PNT1A. Kind of series: Induction of apoptosis in human PNT1A cells assessed as early apoptotic cells incubated for 48 hrs by annexin V and 7-AAD staining based flow cytometry analysis (reference value: 0.04%). Type of series: functional.
The subject of series [15] is PNT1A. Description: Induction of apoptosis in human PNT1A cells assessed as live cells incubated for 48 hrs by annexin V and 7-AAD staining based flow cytometry analysis (reference value: 99.69%). Type of series: functional.
The subject of series [16] is MCF7. Kind of series: Induction of apoptosis in human MCF7 cells assessed as late apoptotic cells incubated for 48 hrs by annexin V and 7-AAD staining based flow cytometry analysis (reference value: 0.68%). Type of series: functional.
Series [17] relates to MDA-MB-231. Kind of series: Induction of apoptosis in human MDA-MB-231 cells assessed as necrosis incubated for 48 hrs by annexin V and 7-AAD staining based flow cytometry analysis (reference value: 0.09%). Type of series: functional.
Series [18] has as its system PNT1A. Description: Induction of apoptosis in human PNT1A cells assessed as late apoptotic cells incubated for 48 hrs by annexin V and 7-AAD staining based flow cytometry analysis (reference value: 0.04%). Type of series: functional.
Series [19] relates to MCF7. Description: Induction of apoptosis in human MCF7 cells assessed as necrosis incubated for 48 hrs by annexin V and 7-AAD staining based flow cytometry analysis (reference value: 0.03%). Type of series: functional.

As to `C[n+]1ccc(/C=C/c2cc3c(O)c(c2)Cc2cc(C(C)(C)C)cc(c2OCCCn2cc(CBr)nn2)Cc2cc(/C=C/c4cc[n+](C)cc4)cc(c2O)Cc2cc(C(C)(C)C)cc(c2OCCCn2cc(CBr)nn2)C3)cc1`, the IC50 at 48 h in [1] stood at 86.4 µM. The IC50 in the series on MDA-MB-231 [2] worked out at 22.8 µM; in the series with MCF7 [3], 28.4 µM.

Regarding `C[n+]1ccc(/C=C/c2cc3c(O)c(c2)Cc2cc(C(C)(C)C)cc(c2OCCCn2cc(CN4C(=O)C(=O)c5cc(F)ccc54)nn2)Cc2cc(/C=C/c4cc[n+](C)cc4)cc(c2O)Cc2cc(C(C)(C)C)cc(c2OCCCn2cc(CN4C(=O)C(=O)c5cc(F)ccc54)nn2)C3)cc1.[I-].[I-]`, the Activity with PNT1A [4] is recorded as 0.1%; with MDA-MB-231 [5] it was 0.11%; in [6] it was “Toxic”; in series [7] it was “Toxic”; in series [8], “Toxic”; in series [9], “Toxic”. For the same compound, the Activity is reported as 64.85% with MDA-MB-231 [10]; 2.03% with MDA-MB-231 [11]; 2.18% in the series with MCF7 [12]; 41.92% in the series on MCF7 [13]; 5.69% with PNT1A [14]; 45.79% with MCF7 [16]. For the same compound, the Activity was 33.01% in the series with MDA-MB-231 [17], 0.28% with PNT1A [18] and 10.11% with MCF7 [19]. For the same compound, the results for the IC50 on Aromatase, in the series on MDA-MB-231 [2] and with MCF7 [3] were 0.711 µM, 5.59 µM and 11.6 µM, respectively. The IC50 at 48 h in [1] turned out to be 62.9 µM. The Live cells in the series with PNT1A [15] was determined as 93.92%.

For `Cc1ccc2c(c1)C(=O)C(=O)N2Cc1cn(CCCOc2c3cc(C(C)(C)C)cc2Cc2cc(/C=C/c4cc[n+](C)cc4)cc(c2O)Cc2cc(C(C)(C)C)cc(c2OCCCn2cc(CN4C(=O)C(=O)c5cc(C)ccc54)nn2)Cc2cc(/C=C/c4cc[n+](C)cc4)cc(c2O)C3)nn1.[I-].[I-]`, the Activity with PNT1A [4] is given as 0.06%; in the series on MDA-MB-231 [5], 0.02%; in series [6], “Toxic”; in series [7], “Toxic”; in series [8], “Toxic”; in series [9], “Toxic”. Also, the Activity in the series on MDA-MB-231 [10] was determined as 83.89%; in the series with MDA-MB-231 [11], 1.31%; in the series on MCF7 [12] it was 10.49%; in the series with MCF7 [13], 71.51%; in the series with PNT1A [14], 3.99%; in the series on MCF7 [16] it was 15.04%. The Activity amounted to 14.78% with MDA-MB-231 [17], 0.35% in the series on PNT1A [18] and 2.96% in the series on MCF7 [19]. Moreover, the figures for the half-inhibitory concentration (IC50) on Aromatase, with MDA-MB-231 [2] and in the series on MCF7 [3] were 0.218 µM, 5.23 µM and 10.2 µM, respectively. Besides, in [1], the IC50 at 48 h is 74.9 µM. Further, the Live cells in the series on PNT1A [15] is listed as 95.6%.

With `C[n+]1ccc(/C=C/c2cc3c(O)c(c2)Cc2cc(C(C)(C)C)cc(c2OCCCn2cc(CN4C(=O)C(=O)c5cc(Br)ccc54)nn2)Cc2cc(/C=C/c4cc[n+](C)cc4)cc(c2O)Cc2cc(C(C)(C)C)cc(c2OCCCn2cc(CN4C(=O)C(=O)c5cc(Br)ccc54)nn2)C3)cc1.[I-].[I-]`, the Activity in the series on PNT1A [4] is reported as 0.14%; with MDA-MB-231 [5], 0.4%; in series [6] it was “Toxic”; in series [7], “Toxic”; in series [8], “Toxic”; in [9], “Toxic”. Further, the Activity in the series on MDA-MB-231 [10] turned out to be 87.12%; with MDA-MB-231 [11], 1.6%; in the series on MCF7 [12], 34.66%; in the series with MCF7 [13], 40.42%; with PNT1A [14], 2.6%; in the series on MCF7 [16], 24.62%. The Activity in the series on MDA-MB-231 [17] is 10.87%; with PNT1A [18], 1.13%; in the series on MCF7 [19], 0.3%. The IC50 at Aromatase was found to be 0.315 µM; in the series on MDA-MB-231 [2], 3.78 µM; in the series on MCF7 [3] it was 10.1 µM. In addition, the IC50 at 48 h in [1] is 57.2 µM. Besides, the Live cells in the series with PNT1A [15] is on record as 96.14%.

In the case of `O=c1[nH]cc(F)c(=O)[nH]1` [FLUOROURACIL], the IC50 at 48 h in [1] is 192 µM. Also, the figures for the IC50 in the series with MDA-MB-231 [2] and in the series with MCF7 [3] were 6.81 µM and 35.3 µM, respectively.

As for `C[n+]1ccc(/C=C/c2cc3c(O)c(c2)Cc2cc(C(C)(C)C)cc(c2OCCCn2cc(CN4C(=O)C(=O)c5ccccc54)nn2)Cc2cc(/C=C/c4cc[n+](C)cc4)cc(c2O)Cc2cc(C(C)(C)C)cc(c2OCCCn2cc(CN4C(=O)C(=O)c5ccccc54)nn2)C3)cc1.[I-].[I-]`, the Activity with PNT1A [4] is 0.63%; in the series with MDA-MB-231 [5] it was 0.26%; in [6], “Toxic”; in series [7] it was “Toxic”; in series [8] it was “Toxic”; in series [9] it was “Toxic”. Besides, the Activity is on record as 91.42% in the series with MDA-MB-231 [10]; 1.66% in the series on MDA-MB-231 [11]; 8.09% with MCF7 [12]; 50.95% in the series on MCF7 [13]; 0.16% with PNT1A [14]; 37.69% with MCF7 [16]. Moreover, the results for the Activity in the series on MDA-MB-231 [17], in the series on PNT1A [18] and in the series with MCF7 [19] were 6.66%, 0.08% and 3.27%, respectively. For the same compound, the 50% inhibitory concentration (IC50) on Aromatase stood at 0.518 µM; with MDA-MB-231 [2], 9.24 µM; with MCF7 [3], 19.2 µM. Besides, the IC50 at 48 h in [1] was 77.6 µM. For the same compound, the Live cells in the series with PNT1A [15] was 99.14%.

As for `C[n+]1ccc(/C=C/c2cc3c(O)c(c2)Cc2cc(C(C)(C)C)cc(c2OCCCn2cc(CN4C(=O)C(=O)c5cc(I)ccc54)nn2)Cc2cc(/C=C/c4cc[n+](C)cc4)cc(c2O)Cc2cc(C(C)(C)C)cc(c2OCCCn2cc(CN4C(=O)C(=O)c5cc(I)ccc54)nn2)C3)cc1.[I-].[I-]`, the Activity in the series with PNT1A [4] is recorded as 0.02%; in the series on MDA-MB-231 [5] it was 0.21%; in series [6], “Toxic”; in series [7], “Toxic”; in series [8], “Toxic”; in series [9], “Toxic”. Further, the Activity is on record as 84.61% in the series with MDA-MB-231 [10]; 1.57% in the series with MDA-MB-231 [11]; 12.97% in the series with MCF7 [12]; 49.15% in the series with MCF7 [13]; 2.22% in the series on PNT1A [14]; 36.55% with MCF7 [16]. Also, the Activity turned out to be 13.61% in the series on MDA-MB-231 [17], 1.09% with PNT1A [18] and 1.33% with MCF7 [19]. The IC50 turned out to be 1.03 µM at Aromatase, 3.98 µM with MDA-MB-231 [2] and 15.1 µM with MCF7 [3]. In series [1], the IC50 at 48 h was 72.5 µM. In the series with PNT1A [15], the Live cells is 96.68%.

As a reminder, the IC50 is the concentration that inhibits the measured activity by half.
